From PubChem BioAssay (NCI)
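Protocol summary: plate cells (96-well), add compound at 5 concentrations, incubate 48 h, interpolate endpoints linearly. GI50: concentration for 50% inhibition of growth. The concentration for full growth arrest is given as TGI.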

What was measured:
Assay in all cases: growth of human tumour cells (NCI), 48 h
[1] = tested on: NCI/ADR-RES ovarian
[2] = tested on: SK-MEL-5 melanoma
[3] = tested on: COLO 205 colon
[4] = tested on: SNB-75 CNS
[5] = tested on: TK-10 renal
[6] = tested on: A549 NSCLC
[7] = tested on: KM12 colon
[8] = tested on: HOP-62 NSCLC
[9] = tested on: DU-145 prostate
[10] = tested on: UACC-62 melanoma

Structure (SMILES)	TGI [1]	TGI [2]	TGI [3]	TGI [4]	TGI [5]	TGI [6]	TGI [7]	TGI [8]	TGI [9]	TGI [10]	GI50 [1]	GI50 [2]	GI50 [4]	GI50 [5]	GI50 [6]	GI50 [7]	GI50 [8]	GI50 [9]	GI50 [10]	GI50 [3]
CC(NC(=O)C1(N)CCCC1)C(=O)O (configuration not stated)	> 100 µM	> 100 µM	> 100 µM	> 100 µM	> 100 µM	> 100 µM	> 100 µM	> 100 µM	> 100 µM	> 100 µM										
COc1ccc(/C=C/c2cnnc3ccccc23)cc1OC	> 10 µM	> 10 µM	> 10 µM	> 10 µM	> 10 µM	> 10 µM	> 10 µM	> 10 µM	> 10 µM	> 10 µM										
COC(=O)/C=C/c1cc(OC)c2c(c1)[C@@H](C(=O)OC)[C@H](c1ccc(OC)c(OC)c1)O2	> 100 µM	> 100 µM		> 100 µM	> 100 µM	> 100 µM	> 100 µM	> 100 µM	> 100 µM	> 100 µM	0.768 µM	0.901 µM	0.432 µM	62.7 µM	11.2 µM	0.703 µM	4.33 µM	2.8 µM	0.972 µM	
N=C(N)c1ccc(-c2ccc(-c3ccccc3)o2)o1	11 µM	3.19 µM	3.49 µM	4.12 µM	11.4 µM	11.7 µM	9.93 µM	15.3 µM	11.6 µM	3.82 µM	2.82 µM	1.75 µM	1.6 µM	3.32 µM	3.55 µM	2.61 µM	3.59 µM	3.3 µM	1.93 µM	1.78 µM
c1ccc(Oc2cnc3ccccc3n2)cc1	> 100 µM	> 100 µM	> 100 µM	> 100 µM	> 100 µM	> 100 µM	> 100 µM	> 100 µM	> 100 µM	> 100 µM	> 100 µM	46.3 µM	33.8 µM	53.9 µM	> 100 µM	> 100 µM	> 100 µM	> 100 µM	85.3 µM	> 100 µM
CCCCCCCCCCCC(=O)[O][Sn]([CH2]CCC)([CH2]CCC)[CH2]CCC	0.236 µM	0.0786 µM	0.122 µM	0.113 µM	0.0677 µM	0.185 µM	0.117 µM	0.232 µM	0.17 µM	0.11 µM	0.0703 µM	0.0302 µM	0.0282 µM	0.0271 µM	0.055 µM	0.0357 µM	0.0795 µM	0.0544 µM	0.0515 µM	0.0509 µM
COc1cccc(-c2nn(C)c3sc(C(=O)NCCN4CCN(c5ccccc5F)CC4)cc23)c1	> 100 µM	26.2 µM	> 100 µM	95.3 µM	> 100 µM	> 100 µM	> 100 µM	> 100 µM	> 100 µM	84.5 µM	13.8 µM	6.38 µM	3.59 µM	65.4 µM	15.3 µM	10.1 µM	25.8 µM	34.2 µM	10.5 µM	20.6 µM
CC(=O)SC(C[N+](=O)[O-])c1ccccc1 (configuration not stated)	55.1 µM	8.77 µM	7.47 µM	7.65 µM	23.6 µM	14 µM	22.6 µM	33 µM	> 46.7 µM	28.5 µM										
Nc1ncnc2c1c(-c1ccc(Oc3ccccc3)cc1)nn2C[C@H]1SSC[C@H]1O	4.87 µM	0.372 µM	1.8 µM	> 24 µM	1 µM	2.07 µM	2.22 µM	0.893 µM	2.37 µM	0.145 µM	1.77 µM	0.159 µM	2.88 µM	0.289 µM	0.394 µM	0.0618 µM	0.039 µM	1.07 µM	0.0377 µM	0.464 µM
COc1ccc(S(=O)(=O)Nc2c(/C=C\c3cc(OC)c(OC)c(OC)c3)ccc(OC)c2O)cc1OC	> 100 µM	0.435 µM	2.99 µM	> 100 µM	> 100 µM	> 100 µM	> 100 µM	> 100 µM	> 100 µM	> 100 µM	1.58 µM	0.0985 µM	0.251 µM		0.403 µM	0.091 µM	0.61 µM	0.388 µM	0.053 µM	0.472 µM
OC(c1cc2c(Cl)cc(Cl)cc2c2cc(C(F)(F)F)ccc12)C1CCCCN1 (configuration not stated)	3.64 µM	3.12 µM	3.55 µM	3.36 µM	3.63 µM	3.68 µM	3.46 µM	3.47 µM	3.55 µM	3.42 µM	1.77 µM	1.73 µM	1.79 µM	2 µM	1.85 µM	1.89 µM	1.72 µM	2 µM	1.78 µM	1.88 µM
O=C(/C=C/c1ccco1)c1cccc(Nc2nc(Nc3ccccc3)nc(Nc3ccccc3)n2)c1	> 100 µM	> 100 µM	14.3 µM	> 69.5 µM	> 100 µM	> 38.2 µM	> 100 µM	> 100 µM	> 100 µM	> 100 µM	36.3 µM	22 µM	2.16 µM	55.3 µM	0.357 µM	6.06 µM	> 55.4 µM	14.5 µM	48.8 µM	2.29 µM
CCc1cc(Cc2cc(CC)cc(C(C)(C)C)c2O)c(O)c(C(C)(C)C)c1	14.7 µM	12.7 µM	3.56 µM	14.1 µM	9.41 µM	13.2 µM	6.35 µM	17.1 µM	13 µM	7.85 µM	3.94 µM	3.63 µM	3.37 µM	3.03 µM	3.18 µM	2.28 µM	4.39 µM	3.53 µM	2.4 µM	1.89 µM
CCCCCCOc1ccc(/C=N/Nc2cc(C)nc3ccc(Br)cc23)cc1	3.84 µM	3.04 µM	3.51 µM	3.46 µM	3.36 µM	3.43 µM	3.5 µM	2.94 µM	3.7 µM	3.24 µM	1.9 µM	1.67 µM	1.84 µM	1.93 µM	1.78 µM	1.8 µM	1.47 µM	1.92 µM	1.74 µM	1.85 µM
